According to patent US20080146555A1, “Uses of Kinase Inhibitors and Compositions Thereof” (GPC Biotech, Inc, priority 2004, published 2008):
Counter-ions that a name gives are not always drawn. Like-named read-outs stand apart in the source and are kept apart here.

Legend:
[1] = test system: normal human fibroblast, IMR90; test: Calcein AM viability assay, IMR90; format: cell-based; settings: IMR-90, text b600
Experimental: The potency of the subject kinase inhibitors, as measured by loss of cellular viability, was determined with the Calcein AM assay (Molecular Probes). Calcein AM is a substrate of intracellular esterases, which is cleaved only in viable cells to generate a fluorescent product that can be quantified with a fluorescent plate reader. The fluorescent signal is proportional to the number of viable cells, and thus loss of signal in response to the exposure of cells to the subject kinase inhibitors correlates with a loss of viability. This assay not only distinguishes cell cycle arrest, in which cells may still by viable, from loss of viability, and is thus well suited for the evaluation of the subject kinase inhibitors. A compound that is a potent cytotoxic agent may cause significant loss of cell viability in such an assay.
Cellular IC50's were determined in the human colorectal carcinoma cell line, HCT-116, and the normal human fibroblast, IMR90. Protein adjusted IC50's were also determined in HCT-116. Results of such viability assays are presented in Table 2 (HCT-116 (viability/protein adjusted) and IMR-90). IC50's (μM, non-protein adjusted) for the viability assay against HCT-116 cells are shown for further compounds of the invention in Table 4.
HCT-116 or IMR90 cells were recovered from sub-confluent plates by trypsinization and 1,000 or 4,000 cells, respectively, were plated in 24-well dishes and incubated overnight at 37° C., 5% CO2. HCT-116 cells were cultured in RPMI-1640, 10% FCS, and IMR90 cells were cultured in Minimum Essential Medium-alpha, 10% FCS. After overnight incubation to allow adherence, the media was aspirated from each well and replaced with media containing a test compound at a concentration from 0 to 250 nM, spanning a total of 7 doses. The plates were returned to the incubator and cultured for an additional 72 hours (3 days). […] After 72-hours incubation with the test compound, the cells were washed twice with 1×PBS, taking special care to remove all residual buffer.
A 5 μM Calcein AM solution was prepared by dissolving a 50 μg aliquot of Calcein (Molecular Probes catalog #C3100) in 50 μl DMSO. After the Calcein had completely dissolved (10 minutes at room temperature), it was diluted into 10 ml PBS. Calcein/PBS (0.5 ml) was added to each well. The plates were incubated for 75 minutes at 37° C. (protected from light) and the fluorescent signal was read on a fluorescent plate reader (excitation 485/20 and emission 530/25).

Abl (c-Abl) = molecular target: T1, Abl (c-Abl) (Homo sapiens, UniProt P00519); test: Abl kinase assay; format: biochemical
T1 construct: purchased Upstate 14-529
Experimental: • 1. 5× Reaction Buffer: 40 mM MOPS, pH 7.0, 1 mM EDTA. • 2. Enzyme Dilution Buffer (EDB): 20 mM MOPS, pH 7.0, 1 mM EDTA, 0.01% Brij-35, 5% glycerol, 0.1% β-mercaptoethanol, 1 mg/ml BSA. • 3. Abl, active: Dilute to 0.2-8 ng/μl with EDB. Use 2.5-μl per assay point. • 4. […] Use 2.5 μl per assay point for a final assay concentration of 50 μM per assay point. • 5. [γ-^32P]ATP: Stock 1 mCi/100 μl (3000 Ci/mmol, obtained from PerkinElmer, Cat. # BLU002A). Make 10 μl aliquots (100 μCi/vial).
• 1. Add 5 μl of 5× Reaction Buffer per assay. • 2. Add 2.5 μl of Abltide (50 μM). • 3. Add 2.5 μl of Abl (human), active (0.5-20 ng). • 4. Add 5 μl sterile, distilled water. • 5. Add 10 μl of the diluted [γ-^32P]ATP solution. • 6. Incubate for 10 minutes at 30° C. • 7. Transfer a 20 μl aliquot onto the center of a 2 cm×2 cm P81 paper. • 8. […] Wash the assay squares once for 5 minutes with acetone. • 10. Transfer the assay squares to vial and add 5 ml scintillation cocktail. • 11. Read in scintillation counter. Compare cpm of enzyme samples to cpm of control samples that contain background control.

Cdk6 = Cdk6 (Homo sapiens, UniProt Q00534); test: Cdk6 inhibition; format: biochemical
Text: Further inhibition results for subject compounds of the invention against other CDKs and further kinases are shown in Table 5, Table II and described in Example 6.
Table 3, Table 4, Table 5 and Table II show the results obtained for inhibition of a broad range of such kinases for subject compounds of the invention.

Lck = molecular target: T2, Lck (Homo sapiens, UniProt P06239); test: Lck kinase assay; format: biochemical
T2 construct: purchased Upstate 14-442
Experimental: • 1. Assay Buffer: 200 mM Tris-HCl pH 7.5, 0.4 mM EGTA, 0.4 mM sodium orthovanadate. • 2. Enzyme Dilution Buffer (EDB): 20 mM MOPS, pH 7.5, 1 mM EDTA, 0.01% Brij-35, 5% glycerol, 0.1% β-mercaptoethanol, 1 mg/ml BSA. • 3. Lck, active: Dilute to 10-100 ng/μl with EDB. Use 2.5 μl per assay point. • 4. Src Substrate Peptide (Catalog #12-140): Prepare a 2.5 mM stock with sterile, distilled water. Use 2.5 μl per assay point for a final concentration of 250 μM per assay. • 5. Magnesium/ATP Cocktail (Catalog #20-113): 500 μM cold ATP and 75 mM magnesium chloride in 20 mM MOPS, pH 7.2, 25 mM β-glycerophosphate, 5 mM EGTA, 1 mM Na3VO4, 1 mM dithiothreitol. • 6. [γ-^32P]ATP: Stock 1 mCi/100 μl (3000 Ci/mmol, obtained from PerkinElmer, Catalog #BLU002A). Make 10 μl aliquots (100 μCi/vial). Before starting the assay, dilute the Magnesium/ATP Cocktail 1:1 with sterile, distilled water. Then dilute an aliquot of [γ-^32P]ATP to 1 μCi/μl with 90 μl of the diluted Magnesium/ATP Cocktail. […]
• 1. Add 6.25 μl of Assay Buffer per assay. • 2. Add 2.5 μl (25-250 ng) of Lck, active. • 3. Add 2.5 μl Src Substrate peptide (250 μM). • 4. Add 3.75 μl distilled water. • 5. Add 10 μl of the diluted [γ-^32P]ATP solution. • 6. Incubate for 10 minutes at 30° C. • 7. Transfer a 20 μl aliquot onto the center of a 2 cm×2 cm P81 paper. • 8. Wash assay squares five times with 0.75% phosphoric acid for 5 minutes per wash. • 9. Wash assay squares once with acetone for 5 minutes. • 10. Transfer assay squares to a scintillation vial and add 5 ml scintillation cocktail. • 11. Read in scintillation counter. Compare cpm of enzyme samples to cpm of control samples that contain no substrate (background control).

[2] = Table II, read-out: ABL1 Inhibition (IC50)
[3] = read-out: Abl (wild-type c-Abl) IC50
[4] = read-out: LCK Inhibition (IC50)

T1 sequence (P00519 whole entry): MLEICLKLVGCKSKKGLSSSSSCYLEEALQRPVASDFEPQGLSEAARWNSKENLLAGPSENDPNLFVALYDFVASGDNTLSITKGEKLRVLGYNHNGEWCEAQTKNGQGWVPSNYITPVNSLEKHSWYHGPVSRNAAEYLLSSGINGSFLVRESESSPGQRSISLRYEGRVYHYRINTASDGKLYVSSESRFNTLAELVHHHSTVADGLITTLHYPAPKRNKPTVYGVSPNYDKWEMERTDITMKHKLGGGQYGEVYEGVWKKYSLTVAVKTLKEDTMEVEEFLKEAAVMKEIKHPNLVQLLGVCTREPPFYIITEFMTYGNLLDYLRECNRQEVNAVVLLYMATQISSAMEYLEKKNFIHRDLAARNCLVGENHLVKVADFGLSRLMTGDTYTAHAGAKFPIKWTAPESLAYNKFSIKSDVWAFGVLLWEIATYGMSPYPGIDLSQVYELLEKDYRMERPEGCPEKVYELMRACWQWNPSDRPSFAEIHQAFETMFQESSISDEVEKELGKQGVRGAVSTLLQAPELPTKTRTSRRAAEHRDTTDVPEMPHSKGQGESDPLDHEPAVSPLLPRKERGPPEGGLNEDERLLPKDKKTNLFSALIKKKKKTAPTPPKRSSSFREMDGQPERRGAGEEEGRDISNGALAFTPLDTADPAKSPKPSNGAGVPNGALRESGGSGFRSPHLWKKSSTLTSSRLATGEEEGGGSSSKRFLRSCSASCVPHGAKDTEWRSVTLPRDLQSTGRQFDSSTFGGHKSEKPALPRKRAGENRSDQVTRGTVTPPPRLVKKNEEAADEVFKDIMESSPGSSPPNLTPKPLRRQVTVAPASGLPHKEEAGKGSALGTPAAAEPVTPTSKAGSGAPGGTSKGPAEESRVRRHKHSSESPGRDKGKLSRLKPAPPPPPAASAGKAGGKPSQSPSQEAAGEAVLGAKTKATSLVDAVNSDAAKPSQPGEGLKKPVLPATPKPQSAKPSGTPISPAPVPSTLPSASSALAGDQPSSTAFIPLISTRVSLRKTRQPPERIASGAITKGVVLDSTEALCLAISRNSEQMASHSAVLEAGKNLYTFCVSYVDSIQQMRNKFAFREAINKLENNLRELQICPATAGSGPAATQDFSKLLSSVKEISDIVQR
T2 sequence (P06239 whole entry): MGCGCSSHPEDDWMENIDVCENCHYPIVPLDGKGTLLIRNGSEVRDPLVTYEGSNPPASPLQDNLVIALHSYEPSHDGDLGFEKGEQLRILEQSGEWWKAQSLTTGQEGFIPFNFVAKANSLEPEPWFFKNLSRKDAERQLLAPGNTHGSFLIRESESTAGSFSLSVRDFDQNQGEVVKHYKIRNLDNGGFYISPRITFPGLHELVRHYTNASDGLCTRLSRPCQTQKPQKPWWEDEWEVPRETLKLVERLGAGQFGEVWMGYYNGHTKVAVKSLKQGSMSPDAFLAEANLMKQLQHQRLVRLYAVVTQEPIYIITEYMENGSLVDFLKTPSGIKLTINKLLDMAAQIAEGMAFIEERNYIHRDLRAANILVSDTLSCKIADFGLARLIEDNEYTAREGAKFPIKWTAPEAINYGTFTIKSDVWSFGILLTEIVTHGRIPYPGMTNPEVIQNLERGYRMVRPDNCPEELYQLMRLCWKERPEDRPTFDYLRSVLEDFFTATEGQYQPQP
Chain of Cdk6 (Q00534 whole entry): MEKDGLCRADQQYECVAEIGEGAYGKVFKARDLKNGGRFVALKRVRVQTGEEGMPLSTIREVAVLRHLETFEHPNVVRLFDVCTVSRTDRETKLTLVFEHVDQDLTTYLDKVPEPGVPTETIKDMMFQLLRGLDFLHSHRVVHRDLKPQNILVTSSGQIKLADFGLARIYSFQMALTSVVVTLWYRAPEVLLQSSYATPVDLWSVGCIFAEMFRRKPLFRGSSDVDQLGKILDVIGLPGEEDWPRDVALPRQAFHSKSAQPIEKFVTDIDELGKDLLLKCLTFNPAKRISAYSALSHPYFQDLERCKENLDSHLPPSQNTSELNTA
Chain of Cdk6 (P30279 whole entry partner): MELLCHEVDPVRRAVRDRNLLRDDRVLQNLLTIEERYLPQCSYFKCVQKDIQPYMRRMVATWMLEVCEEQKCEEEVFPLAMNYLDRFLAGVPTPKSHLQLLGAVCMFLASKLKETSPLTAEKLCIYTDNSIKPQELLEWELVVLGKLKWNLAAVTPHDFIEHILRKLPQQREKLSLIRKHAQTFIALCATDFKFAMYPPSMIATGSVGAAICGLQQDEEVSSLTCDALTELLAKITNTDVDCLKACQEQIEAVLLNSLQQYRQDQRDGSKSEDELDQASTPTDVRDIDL

SMILES	IC50 [1]	IC50 (Abl (c-Abl); Table AA, read-out: Abl IC50)	IC50 (Abl (c-Abl); [2])	IC50 (Abl (c-Abl); [3])	IC50 (Cdk6)	IC50 (Lck; kinase panel, 10 μM ATP, read-out: Lck (Lymphocyte kinase) IC50)	IC50 (Lck; [4])
COCCN1CCN(Cc2ccc(-c3n[nH]c4c3C(=O)c3c(NC(=O)NN5CCOCC5)cccc3-4)cc2)CC1 [Compound B16, N-[3-(4-{[4-(2-methoxyethyl)piperazinyl]methyl}phenyl)-4-oxoindeno[2,3-d]pyrazol-5-yl](morpholin-4-ylamino)carboxamide dihydrochloride]	< 100 nM	52 nM	< 100 nM	< 100 nM	< 50 nM	< 100 nM	< 50 nM
CC(C)N1CCN(C(=O)COc2ccc(-c3n[nH]c4c3C(=O)c3c(NC(=O)NN5CCOCC5)cccc3-4)cc2)CC1 [Compound A37]	< 50 nM	35 nM	< 50 nM	< 50 nM	< 100 nM	–	< 50 nM
